Two compounds from paper PMC12442245, “Activity Analysis of the P2X Receptor Antagonist PPADS against Signal Transducer and Activator of Transcription Proteins” (Chembiochem, 2025) can be followed below.

In this assay the target is T1, STAT4 (Homo sapiens, UniProt Q14765).
T1 sequence (Q14765 1-748): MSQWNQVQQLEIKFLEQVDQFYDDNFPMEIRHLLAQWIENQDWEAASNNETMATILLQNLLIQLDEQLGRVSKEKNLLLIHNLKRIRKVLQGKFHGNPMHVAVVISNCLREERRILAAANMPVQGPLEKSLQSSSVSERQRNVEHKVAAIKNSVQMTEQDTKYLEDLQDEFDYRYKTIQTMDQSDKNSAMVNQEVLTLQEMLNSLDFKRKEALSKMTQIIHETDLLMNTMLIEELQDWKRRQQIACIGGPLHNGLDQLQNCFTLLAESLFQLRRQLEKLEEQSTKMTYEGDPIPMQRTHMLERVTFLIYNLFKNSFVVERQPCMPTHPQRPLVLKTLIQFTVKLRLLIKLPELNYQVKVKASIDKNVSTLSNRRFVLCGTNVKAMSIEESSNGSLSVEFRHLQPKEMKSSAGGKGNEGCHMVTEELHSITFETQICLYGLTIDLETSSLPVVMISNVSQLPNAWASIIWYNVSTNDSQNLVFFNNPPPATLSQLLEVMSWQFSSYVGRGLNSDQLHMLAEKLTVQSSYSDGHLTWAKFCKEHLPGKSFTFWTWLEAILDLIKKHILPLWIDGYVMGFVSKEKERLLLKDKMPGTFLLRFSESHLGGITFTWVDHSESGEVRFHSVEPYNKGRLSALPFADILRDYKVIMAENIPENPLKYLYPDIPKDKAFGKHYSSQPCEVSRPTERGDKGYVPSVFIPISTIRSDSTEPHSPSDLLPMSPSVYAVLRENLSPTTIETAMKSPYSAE
Kind of assay: HTRF assay, STAT4. Format: binding. Conditions: STAT4 30 nM, without reducing agent, 1 h. The source says:
The azo dyes PPADS and iso‐PPADS have a deep red color in aqueous solution. […] In order to exclude this possibility, we established homogeneous time‐resolved fluorescence resonance energy transfer (HTRF) assays to confirm the degree of binding between STAT4, STAT5a, and STAT5b and the respective 5‐carboxyfluorescein‐labeled binding peptides used in the FP assay. In addition, an HTRF assay was established for STAT3, one of the STAT proteins targeted to a lesser extent in FP assays, as a specificity control (Figure 1B,C). The STAT protein constructs each contain a 6x‐His‐tag.^[ [15], [16], [17], [22] ^] A Tb^3+‐cryptate fused to an anti‐6x‐His antibody was chosen as the long‐lived fluorescent donor, while the carboxyfluorescein linked to the respective STAT‐binding peptides served as the acceptor (Figure 2A). Emission was measured with a time delay of 60 μs after excitation, allowing any initial compound fluorescence to decay beforehand. […]
Screening of chemical libraries comprising approximately 5000 known bioactive compounds in fluorescence polarization-based assays against phosphorylation-dependent protein-protein interaction domains, including STAT proteins, has been described.[1] […]
Fluorescence polarization assays
Competitive fluorescence polarization (FP) assays for STAT1,[2] […] Briefly, peptide binding to proteins was analyzed using the following carboxyfluorescein (CF) -labelled pepti des at a concentration of 10 nM: STAT1: 5-CF-GpYDKPHVL-OH, STAT3: 5-CF-GpYLPQTV -NH2, STAT4: 5-CF-GpYLPQNID-OH, STAT5a and STAT5b: 5-CF-GpYLVLDKW-OH, STAT6: 5- […]
CFGp[…]-OH. […] FP was measured using an Infinite F500 plate reader (Tecan) and measurements were converted into percent inhibition according to the binding curve equation. Curves were plotted and best fits calculated using OriginPro […]
Homogenous time-resolved fluorescence (HTRF) assays for STAT3, STAT4, STAT5a and STAT5b were carried out using Cisbio Monoclonal Antibody Anti-6His-Tb Gold as the fluorescence donor (Perkin Elmer) and the corresponding CF-labelled binding peptide as the acceptor. […] The average reading from 3 wells was obtained. […]

For orientation: IC50 means the midpoint of a concentration-inhibition curve. As for `Cc1nc(/N=N/c2ccc(S(=O)(=O)O)cc2S(=O)(=O)O)c(COP(=O)(O)O)c(C=O)c1O` [PPADS, pyridoxalphosphate‐6‐azophenyl‐2',4'‐disulfonic acid], it took 2.92 ± 0.36 µM to reach half-maximal inhibition (IC50).
Compound `Cc1nc(/N=N/c2cc(S(=O)(=O)O)ccc2S(=O)(=O)O)c(COP(=O)(O)O)c(C=O)c1O` [iso‐PPADS] registered an IC50 of 8.6 ± 1.3 µM. This IC50 is about 2.9-fold higher than that of the compound before.
